In brackets after ≈: the same amount, converted by molar mass.
Legend:
[1] = molecular target: CYP2D6 (Homo sapiens, UniProt P10635); test: biochemical
Protocol: The effects of different concentrations of the test compounds on the metabolic reactions of phenacetin (CYP1A2), diclofenac sodium (CYP2C9), S-mephenytoin (CYP2C19), bufuralol hydrochloride (CYP2D6), and midazolam (CYP3A4/5) were assessed by liquid chromatography-tandem mass spectrometry (LC/MS/MS).
Then, 200 µL of an acetonitrile solution containing 3% formic acid and 40 nM internal standard verapamil was added, and the mixture was centrifuged at 4000 rpm for 50 min. The mixture was cooled on ice for 20 min and centrifuged at 4000 rpm for 20 min to precipitate protein. 200 µL of the supernatant was taken for LC/MS/MS analysis.
The peak area was calculated based on the chromatogram. The residual activity proportion (%) was calculated using the following formula: peak area ratio = peak area of metabolite / peak area of internal standard [formula]
The half maximal inhibitory concentrations (IC50) against CYP were calculated using Excel XLfit 5.3.1.3.

[2] = molecular target: CYP3A4 (Homo sapiens, UniProt P08684); test: CYP inhibition assay in pooled human liver microsomes (CYP3A4, midazolam); assay type: in vitro ADME; settings: pH 7.4, probe midazolam (3 µM), 37 °C, read-out: CYP 3A4 half maximal inhibitory concentration (IC50)
[3] = Thermodynamic solubility testing in pH 7.4 phosphate buffer; assay type: physicochemical; settings: sodium phosphate buffer, aqueous buffer, thermodynamic from solid, 25 °C
Protocol: The thermodynamic solubility of the compounds in a pH 7.4 phosphate buffer was determined. Both the sample supernatant and the standard of a known concentration were tested by LC/MS/MS.
15.6 g of NaH2PO4·2H2O was weighed out, placed into a 1 L glass flask, and dissolved in 1 L of deionized water. The pH of the solution was approximately 4.7, and then the pH was adjusted to 7.4 with 10 M NaOH.
1 mg of each compound powder was accurately weighed out and placed in a glass tube. The pH 7.4 sodium phosphate buffer was added to the glass tube, with 1 mL of the buffer added for each milligram of the compound powder. A stirring bar was added to each glass tube, and the glass tube was closed with a cap. […] The observations in each glass tube were recorded. […] The recorded observations and dilution factors
1 mg of each compound powder was accurately weighed out and added to a glass tube, and DMSO was added to each glass tube, with 1 mL of DMSO added for each milligram of the compound powder. […] Samples were analyzed by LC/MS/MS. […]
All calculations were performed using Microsoft Excel. Samples were analyzed by LC/MS/MS and quantified based on the standard of a known concentration. The solubility of the test compounds was calculated using the following formula: [Sample] = Area Ratio sample × DF sample × [STD] / Area Ratio STD DF: dilution factor. […]

[4] = molecular target: T1, human PXR (Homo sapiens, UniProt O75469); test: PXR induction assay in DPX2 cells (luciferase reporter); assay type: cell-based; settings: for fold induction at 24 h, 0.123 µM: compound concentration 0.123 µM; for fold induction at 24 h, 10 µM: compound concentration 10.0 µM
T1 construct: host or cells: DPX2 (HepG2 stably transfected)
T1 sequence (O75469 1-434): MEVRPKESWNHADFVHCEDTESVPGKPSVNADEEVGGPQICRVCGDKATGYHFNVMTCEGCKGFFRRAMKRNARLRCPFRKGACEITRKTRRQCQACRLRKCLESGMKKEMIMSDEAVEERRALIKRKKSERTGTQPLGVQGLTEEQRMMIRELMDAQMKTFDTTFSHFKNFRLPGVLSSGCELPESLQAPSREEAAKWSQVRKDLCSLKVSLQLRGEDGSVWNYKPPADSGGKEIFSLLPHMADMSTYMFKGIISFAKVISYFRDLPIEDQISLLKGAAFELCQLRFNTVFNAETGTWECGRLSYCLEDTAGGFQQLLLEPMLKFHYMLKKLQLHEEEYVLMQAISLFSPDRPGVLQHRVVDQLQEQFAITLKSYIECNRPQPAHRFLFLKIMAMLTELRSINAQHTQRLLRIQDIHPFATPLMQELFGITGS
Protocol: • 1. […] The final concentration of DMSO was 0.1%. […] The reagent was gently and well mixed, and the mixture was incubated and well mixed at room temperature for 5 min.

Sequence of CYP2D6 (P10635 whole entry): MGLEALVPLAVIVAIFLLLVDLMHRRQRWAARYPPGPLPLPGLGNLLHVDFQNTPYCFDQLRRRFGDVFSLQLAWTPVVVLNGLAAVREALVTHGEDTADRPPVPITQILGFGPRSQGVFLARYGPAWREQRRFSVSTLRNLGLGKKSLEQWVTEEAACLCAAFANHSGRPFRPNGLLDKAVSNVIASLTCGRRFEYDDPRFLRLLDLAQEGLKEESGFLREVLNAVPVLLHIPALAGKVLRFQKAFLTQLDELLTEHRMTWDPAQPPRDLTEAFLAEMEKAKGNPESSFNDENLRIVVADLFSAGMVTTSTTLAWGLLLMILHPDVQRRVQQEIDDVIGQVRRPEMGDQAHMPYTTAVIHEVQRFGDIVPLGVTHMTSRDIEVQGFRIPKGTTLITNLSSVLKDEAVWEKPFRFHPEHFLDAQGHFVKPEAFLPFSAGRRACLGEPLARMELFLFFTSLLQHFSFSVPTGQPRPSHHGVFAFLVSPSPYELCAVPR
Sequence of CYP3A4 (P08684 2-503): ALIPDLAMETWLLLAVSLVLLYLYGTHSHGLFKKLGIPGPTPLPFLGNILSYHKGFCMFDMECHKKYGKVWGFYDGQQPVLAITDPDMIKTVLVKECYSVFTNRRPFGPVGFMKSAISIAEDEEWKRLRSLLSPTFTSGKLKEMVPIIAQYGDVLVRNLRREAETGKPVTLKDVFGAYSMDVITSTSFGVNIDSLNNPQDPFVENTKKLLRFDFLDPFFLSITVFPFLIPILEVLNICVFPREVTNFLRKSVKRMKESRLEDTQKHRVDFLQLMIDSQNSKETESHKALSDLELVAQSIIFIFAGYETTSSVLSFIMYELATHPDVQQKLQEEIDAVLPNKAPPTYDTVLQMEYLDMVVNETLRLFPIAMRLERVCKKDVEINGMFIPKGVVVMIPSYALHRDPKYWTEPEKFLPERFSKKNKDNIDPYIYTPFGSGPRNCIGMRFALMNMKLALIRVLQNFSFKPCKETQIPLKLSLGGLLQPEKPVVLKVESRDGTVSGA

Row | IC50 [1] | IC50 at 5 min [2] | solubility at 24 h [3] | fold induction at 24 h, 0.123 µM [4] | fold induction at 24 h, 10 µM [4] | SMILES
1 | > 30 µM | > 30 µM | 2200 µM (≈ 1050 µg/mL) | 0.87 | 1.43 | C[C@H]1COc2c(-c3nc(N[C@@H]4CCOC[C@H]4O)ncc3Cl)cc(F)c3nc(C(C)(C)O)n1c23 (single isomer, unassigned) [Isomer 1 with a retention time of 2.078 min]
2 | > 30 µM | > 30 µM | 2130 µM (≈ 1020 µg/mL) | 0.99 | 1.48 | C[C@@H]1COc2c(-c3nc(N[C@@H]4CCOC[C@H]4O)ncc3Cl)cc(F)c3nc(C(C)(C)O)n1c23 (single isomer, unassigned) [Isomer 2 with a retention time of 1.887 min]

Reference: patent publication EP4567040A1, “CRYSTAL FORM OF FUSED TRICYCLIC DERIVATIVE AND PREPARATION METHOD” (Jiangsu Hengrui Pharmaceuticals Co., Ltd., priority 2022, dated 2024)
